Data from patent US8435958B2, “Method for producing pectin hydrolysis products” (N.V. Nutricia, priority 2000, dated 2013).
Values belong to the compound of their own block, whether it stands above or below them.

Experiments:
Caco-2 = assay: Growth of colon cancer cell lines on extracellular matrix (ECM), living cell count by trypan blue; format: cell-based, human; details: for Reduction in Cell Growth: 48 hours
Experimental: (§1) Human colon cancer cell lines HT-29 or Caco-2 were seeded with a cell density of 1×10^4 cells/ml in 15 mm Petri dishes and cultivated in medium RPMI 1640+10% fetal calf serum (FCS) (HT-29) or, respectively, in MEM+10% FCS (Caco-2) at 37° C. under an atmosphere containing 5% CO2. The cells were left to grow for 1 to 2 days until reaching confluence. The dishes were then washed once with PBS, then incubated with PBS and 0.5% Triton X-100 for 30 minutes at room temperature on an agitator, and then washed 3 times with PBS. The previously described cell lines then were again seeded on the dishes with the ECM layers prepared in this way. The influence of the pectin hydrolysate on cell growth was determined by counting the cells. For this, the cells were again removed after 48 hours with trypsine/EDTA solution in HBBS (10 min) and were washed in PBS solution. Then the number of living cells was determined by staining with trypan blue solution (650 mg trypan blue in 400 ml 0.9% NaCl, 1:1 (v/v)) in a Neubauer counting chamber. As a control, experiments were performed with glucose.

HT-29 = assay: as above; format: cell-based, human; details: for Reduction in Cell Growth: 48 hours
Experimental: as §1

Caco-2 cells = system: Caco-2 cells
Description: The test is based on the migration of cells through the pores of a nucleopore polycarbonate filter in a protein gel that contains several ECM proteins, such as, for example, type 1 and type III collagen, fibronectin, and laminin, to a nitrocellulose filter. […] As a control, the effect of glucose on the invasive capacity of Caco-2 cells was studied.

[1] = target: T1, galectin-3 on Caco-2 colon cancer cells (Homo sapiens, UniProt P17931); assay: Inhibition of anti-galectin-3 monoclonal antibody binding, immunofluorescence/flow cytometry
T1 construct: endogenous in cells; host or cells: Caco-2 human colon cancer cells
Experimental: (§2) The expression of galectin-3 on colon cancer cells was determined with immunofluorescence/flow cytometry methods using an anti-galectin-3-specific monoclonal antibody (mouse-Ig) and a corresponding anti-mouse FITC-coupled secondary antibody.

[2] = target: T2, galectin-3 on HT 29 colon cancer cells (Homo sapiens, UniProt P17931); assay: as above
T2 construct: endogenous in cells; host or cells: HT-29 (HT 29) human colon cancer cells
Experimental: as §2

E. coli [3] = details: from EP 0 716 605 B1; cited from earlier work
E. coli [4] = assay: Prevention of adhesion of pathogenic germs to human uroepithelial cells; format: cell-based; details: human uroepithelial cells pre-incubated 1, 2 or 3 hours, various concentrations
Experimental: (§3) For this test, human uroepithelian cells obtained by centrifugation from morning urine as well as two strains of staphylococcus aureus and E. coli were used, each as a suspension with 10^9 germs/mL.
(§4) Epithelial cells and germ suspension were incubated together at 37° C. for 30 minutes. The epithelial cells then were separated from the non-adherent germs by membrane filtration (8μ). The filters were washed several times, placed into normal saline, and the epithelial cells were suspended in it. After centrifugation of the suspension in saline, the pellet was applied to slides and stained according to May-Grünwald and Giemsa. The number of germs adhering to 50 epithelial cells were counted. This number represented the blank value. Epithelial cells to which no germ solution had been added were used as a control.
(§5) In the main test, epithelial first were incubated with aqueous solutions of various concentrations consisting of pectin hydrolysis products produced according to the invention (according to Example 1) for 1, 2 or 3 hours. They were then combined with the germ suspension and treated further as described above. The measuring value was obtained by counting the germs adhering to 50 epithelial cells.

staphylococcus aureus = assay: as above; format: cell-based; details: human uroepithelial cells pre-incubated 1, 2 or 3 hours, various concentrations
Experimental: as §3, §4, §5

[5] = Caco-2, in relation to the concentration used
[6] = HT 29, in relation to the concentration used

T2 sequence (P17931 whole entry): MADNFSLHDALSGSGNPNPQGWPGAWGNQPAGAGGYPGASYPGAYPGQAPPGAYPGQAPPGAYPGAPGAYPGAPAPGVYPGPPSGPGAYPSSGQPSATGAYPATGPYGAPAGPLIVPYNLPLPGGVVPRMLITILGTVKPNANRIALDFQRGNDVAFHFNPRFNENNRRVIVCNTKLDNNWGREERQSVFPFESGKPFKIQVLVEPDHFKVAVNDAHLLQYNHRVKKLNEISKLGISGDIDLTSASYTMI
T1 sequence (P17931 whole entry): as above

- reduction of the invasive capacity of Caco-2 cells (text summary of Table 2) (Caco-2 cells): only caused a slight reduction
- Reduction of Binding Monoclonal Anti-Galectin-3 Antibody ([1]; Caco-2, concentration 0.01%): 0
- Reduction of Binding Monoclonal Anti-Galectin-3 Antibody ([1]; Caco-2, concentration 0.1%): 0
- Reduction of Binding Monoclonal Anti-Galectin-3 Antibody ([1]; Caco-2, concentration 1.0%): 0
- reduction of the binding of the monoclonal anti-galectin-3 antibody (Table 3) [1, 5]: not at all or only slightly
- Reduction of Binding Monoclonal Anti-Galectin-3 Antibody ([2]; HT 29, concentration 0.01%): 0
- Reduction of Binding Monoclonal Anti-Galectin-3 Antibody ([2]; HT 29, concentration 0.1%): 0
- Reduction of Binding Monoclonal Anti-Galectin-3 Antibody ([2]; HT 29, concentration 1.0%): 2
- reduction of the binding of the monoclonal anti-galectin-3 antibody (Table 3) [2, 6]: not at all or only slightly
SMILES: O=C[C@H](O)[C@@H](O)[C@H](O)[C@H](O)CO [Glucose, glucose]
- Reduction in Cell Growth (Caco-2; Caco-2, concentration 0.01%): 0%
- Reduction in Cell Growth (Caco-2; Caco-2, concentration 0.1%): 0%
- Reduction in Cell Growth (Caco-2; Caco-2, concentration 1.0%): 0%
- reduced cell growth (text summary of Table 1) (Caco-2; [5]): no influence
- Reduction in Cell Growth (HT-29; HT 29, concentration 0.01%): 0%
- Reduction in Cell Growth (HT-29; HT 29, concentration 0.1%): 1%
- Reduction in Cell Growth (HT-29; HT 29, concentration 1.0%): 0%
- reduced cell growth (text summary of Table 1) (HT-29; [6]): no influence

SMILES: O=C(O)[C@H]1O[C@H](O[C@@H]2[C@H](O)[C@@H](O)[C@@H](O)O[C@@H]2C(=O)O)[C@H](O)[C@@H](O)[C@H]1O [digalacturonide]
- blocking of the adhesion (E. coli [3]): ≤ 91.7%

SMILES: OC[C@H]1O[C@H](O[C@]2(CO)O[C@H](CO[C@H]3O[C@H](CO)[C@@H](O)[C@H](O)[C@H]3O)[C@@H](O)[C@@H]2O)[C@H](O)[C@@H](O)[C@@H]1O [isomelezitose]
- blockage of germ adhesion to the epithelial cells (E. coli [4]): No reduction
- blockage of germ adhesion to the epithelial cells (staphylococcus aureus): No reduction

SMILES: O=C(O)[C@H]1OC(O)[C@H](O)[C@@H](O)[C@H]1O (some centres unmarked) [monogalacturonic acid]
- blocking of the adhesion (E. coli [3]): no blocking

SMILES: OC[C@H]1O[C@@](CO)(OC[C@@]2(OC[C@@]3(O[C@H]4O[C@H](CO)[C@@H](O)[C@H](O)[C@H]4O)O[C@H](CO)[C@@H](O)[C@@H]3O)O[C@H](CO)[C@@H](O)[C@@H]2O)[C@@H](O)[C@@H]1O [nystose]
- blockage of germ adhesion to the epithelial cells (E. coli [4]): No reduction
- blockage of germ adhesion to the epithelial cells (staphylococcus aureus): No reduction

SMILES: OC[C@H]1O[C@H](OC[C@H]2O[C@H](O[C@]3(CO)O[C@H](CO)[C@@H](O)[C@@H]3O)[C@H](O)[C@@H](O)[C@@H]2O)[C@H](O)[C@@H](O)[C@H]1O [raffinose]
- blockage of germ adhesion to the epithelial cells (E. coli [4]): No reduction
- blockage of germ adhesion to the epithelial cells (staphylococcus aureus): No reduction

SMILES: O=C(O)[C@H]1O[C@H](O[C@@H]2[C@H](O)[C@@H](O)[C@@H](O[C@@H]3[C@H](O)[C@@H](O)C(O)O[C@@H]3C(=O)O)O[C@@H]2C(=O)O)[C@H](O)[C@@H](O)[C@H]1O (some centres unmarked) [trigalacturonide]
- blocking of the adhesion (E. coli [3]): ≤ 84.6%
